# pIC50: −log10 of the molar value.
# Molecular target: Influenza PB2 (Influenza A virus, UniProt P03428)
# Assay: biochemical
# Format: binding
# Conditions: read-out: Influenza PB2 affinity, IC50
# Influenza PB2, sequence (P03428 whole entry, looked up): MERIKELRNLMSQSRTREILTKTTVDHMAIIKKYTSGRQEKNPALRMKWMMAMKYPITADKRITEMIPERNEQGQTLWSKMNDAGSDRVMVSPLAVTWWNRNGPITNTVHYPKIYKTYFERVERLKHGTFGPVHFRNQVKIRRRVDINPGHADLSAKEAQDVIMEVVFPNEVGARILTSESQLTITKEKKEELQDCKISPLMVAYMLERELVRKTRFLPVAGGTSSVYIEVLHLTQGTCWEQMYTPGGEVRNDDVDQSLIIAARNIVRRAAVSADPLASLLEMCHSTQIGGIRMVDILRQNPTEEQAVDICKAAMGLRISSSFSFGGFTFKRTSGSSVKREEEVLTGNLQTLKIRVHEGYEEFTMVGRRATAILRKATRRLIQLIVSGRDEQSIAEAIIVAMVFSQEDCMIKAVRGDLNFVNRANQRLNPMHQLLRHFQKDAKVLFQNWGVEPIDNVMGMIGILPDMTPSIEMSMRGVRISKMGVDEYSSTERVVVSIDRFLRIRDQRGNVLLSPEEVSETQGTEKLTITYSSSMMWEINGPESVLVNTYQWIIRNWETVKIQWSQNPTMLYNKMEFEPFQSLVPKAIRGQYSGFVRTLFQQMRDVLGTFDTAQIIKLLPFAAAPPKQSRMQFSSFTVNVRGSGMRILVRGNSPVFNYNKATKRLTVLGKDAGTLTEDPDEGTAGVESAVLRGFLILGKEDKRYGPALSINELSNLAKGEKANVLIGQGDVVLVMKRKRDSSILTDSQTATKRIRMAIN
row,Compound,pIC50
1,CCOC(=O)[C@@H]1C2CCC(CC2)[C@H]1n1cc(C(C)C)c2cnc(-c3c[nH]c4ncc(F)cc34)nc21 [Compound B180],4.00 to 5.00
2,CCCCCOCCOCCNC(=O)N[C@H]1CCC[C@@H](n2ccc3cnc(-c4c[nH]c5ncc(F)cc45)nc32)C1 [Compound B36],< 4.00
3,COC(=O)NCCn1cc(-c2c[nH]c3ncc(F)cc23)c2cncnc21 [Compound C15],< 4.00
4,O=C(O)/C=C/n1ccc2cnc(-c3c[nH]c4ncc(F)cc34)nc21 [Compound B18],4.00 to 5.00
5,COC(=O)[C@@H](Cc1ccccc1)NC(=O)CCn1ccc2c(-c3c[nH]c4ncc(F)cc34)ncnc21 [Compound A18],< 4.00
6,N#Cc1cnc2[nH]cc(-c3ncc4c(Cl)cn([C@@H]5C6CCC(CC6)[C@H]5C(=O)O)c4n3)c2c1 [Compound B218],< 4.00
7,CC(C)(C)C(C(=O)O)n1ccc2cnc(-c3c[nH]c4ncc(F)cc34)nc21 (centres unmarked) [Compound B84],5.00 to 6.00
8,CCOCCOCCCCCNC(=O)N[C@@H]1CCC[C@H](n2ccc3cnc(-c4c[nH]c5ncc(F)cc45)nc32)C1 [Compound B40],< 4.00
9,CCOCCOCCCCCNC(=O)N1CCC[C@H](n2ccc3cnc(-c4c[nH]c5ncc(F)cc45)nc32)C1 [Compound B37],< 4.00
10,CCOC(=O)[C@H]1C2CCC(CC2)[C@@H]1n1cc(F)c2cnc(-c3c[nH]c4ncc(F)cc34)nc21 [Compound B129],4.00 to 5.00
11,CNC(=O)c1cn([C@H]2C3CCC(CC3)[C@@H]2C(=O)O)c2nc(-c3c[nH]c4ncc(Cl)cc34)ncc12 [Compound B197],> 6.00
12,O=C(O)[C@@H]1CCCC[C@H]1n1cc(F)c2cnc(-c3c[nH]c4ncc(Cl)cc34)nc21 [Compound B87],> 6.00
13,CC(=O)N1CCCC(Cn2cc(F)c3cnc(-c4c[nH]c5ncc(F)cc45)nc32)C1 (centres unmarked) [Compound B54],5.00 to 6.00
14,O=C(O)Cn1ccc2cnc(-c3c[nH]c4ncc(F)cc34)nc21 [Compound B4],4.00 to 5.00
15,N#Cc1cnc2[nH]cc(-c3ncc4c(F)cn([C@@H]5C6CCC(CC6)[C@H]5C(=O)O)c4n3)c2c1 [Compound B214],5.00 to 6.00
16,O=C(O)Cn1ccc2c(-c3c[nH]c4ncc(F)cc34)ncnc21 [Compound A3],5.00 to 6.00
17,O=C(O)c1cn([C@H]2C3CCC(CC3)[C@@H]2C(=O)O)c2nc(-c3c[nH]c4ncc(Cl)cc34)ncc12 [Compound B196],5.00 to 6.00
18,C[C@@]1(C(=O)O)CCCC[C@H]1n1cc(C(F)(F)F)c2cnc(-c3c[nH]c4ncc(F)cc34)nc21 [Compound B74],> 6.00
19,CCOC(=O)[C@@H]1C2CCC(CC2)[C@H]1n1cc(-c2ccc(O)cc2)c2cnc(-c3c[nH]c4ncc(F)cc34)nc21 [Compound B178],4.00 to 5.00
20,CN(C)C(=O)N[C@H]1CC[C@H](n2ccc3cnc(-c4c[nH]c5ncc(F)cc45)nc32)CC1 [Compound B80],< 4.00
21,CCOCCOCCOCCNC(=O)[C@H]1CCC[C@H](n2ccc3cnc(-c4c[nH]c5ncc(F)cc45)nc32)C1 [Compound B47],< 4.00
22,COC(=O)[C@H]1CCCN1C(=O)Cn1ccc2c(-c3c[nH]c4ncc(F)cc34)ncnc21 [Compound A15],< 4.00
23,O=C(O)CNC(=O)Cn1ccc2c(-c3c[nH]c4ncc(F)cc34)ncnc21 [Compound A6],4.00 to 5.00
24,O=C(O)[C@H]1C2CCC(CC2)[C@@H]1n1cc(-c2cccnc2)c2cnc(-c3c[nH]c4ncc(F)cc34)nc21 [Compound B142],> 6.00

row,Compound,pIC50
1,CCOCCOCCOCCNC(=O)N[C@H]1CCC[C@@H](n2ccc3cnc(-c4c[nH]c5ncc(F)cc45)nc32)C1 [Compound B27],4.00 to 5.00
2,O=C(O)[C@@H]1CCC[C@H](n2ccc3cnc(-c4c[nH]c5ncc(F)cc45)nc32)C1 [Compound B48],5.00 to 6.00
3,O=C(O)[C@@H]1C2CCC(CC2)C1n1cc(Cl)c2cnc(-c3c[nH]c4ncc(F)cc34)nc21 (some centres unmarked) [Compound B138],> 6.00
4,O=C(O)[C@@H]1C2CCC(CC2)C1n1cc(F)c2cnc(-c3c[nH]c4ncc(F)cc34)nc21 (some centres unmarked) [Compound B139],5.00 to 6.00
5,CCOC(=O)[C@@H]1C2CCC(CC2)[C@H]1n1cc(-c2cccc(O)c2)c2cnc(-c3c[nH]c4ncc(F)cc34)nc21 [Compound B182],5.00 to 6.00
6,O=C(O)[C@H]1C2CCC(CC2)[C@@H]1n1cc(Cl)c2cnc(-c3c[nH]c4ncccc34)nc21 [Compound B140],> 6.00
7,"O=C(O)[C@@H]1C2CCC(CC2)C1n1cc(F)c2cnc(-c3c[nH]c4ncc(Cl)cc34)nc21 (single isomer, unassigned) [Compound B144]",> 6.00
8,COC(=O)N[C@H]1C2CCC(CC2)[C@@H]1n1cc(Cl)c2cnc(-c3c[nH]c4ncc(F)cc34)nc21 [Compound B149],5.00 to 6.00
9,O=C(O)[C@H]1C2CCC(CC2)C1n1ccc2cnc(-c3c[nH]c4ncc(F)cc34)nc21 (some centres unmarked) [Compound B120],> 6.00
10,COC(=O)[C@@]1(C)CCCC[C@H]1n1cc(Cl)c2cnc(-c3c[nH]c4ncc(F)cc34)nc21 [Compound B81],< 4.00
11,COC(=O)[C@H](CO)NC(=O)CCn1ccc2c(-c3c[nH]c4ncc(F)cc34)ncnc21 [Compound A19],4.00 to 5.00
12,CCOCCOCCOCC(=O)N1CCC[C@H](n2ccc3cnc(-c4c[nH]c5ncc(F)cc45)nc32)C1 [Compound B32],4.00 to 5.00
13,CNC(=O)n1cc(-c2ncc3c(F)cn(CC4CCCCN4)c3n2)c2cc(F)cnc21 (centres unmarked) [Compound B77],4.00 to 5.00
14,CCOC(=O)C(C)Cn1cc(-c2c[nH]c3ncc(F)cc23)c2cncnc21 (centres unmarked) [Compound C17],< 4.00
15,CNC(=O)NC1CCCC(n2ccc3cnc(-c4c[nH]c5ncc(F)cc45)nc32)C1 (centres unmarked) [Compound B57],4.00 to 5.00
16,O=C(O)Cn1cc(-c2c[nH]c3ncc(F)cc23)c2cncnc21 [Compound C4],< 4.00
17,O=C(O)CCn1ccc2cnc(-c3c[nH]c4ncc(F)cc34)nc21 [Compound B5],4.00 to 5.00
18,O=CC1=C(n2cc(F)c3cnc(-c4c[nH]c5ncc(Cl)cc45)nc32)C2CCC1CC2 [Compound B209],5.00 to 6.00
19,CNC(=O)CNC(=O)[C@H]1C2CCC(CC2)[C@@H]1n1cc(Cl)c2cnc(-c3c[nH]c4ncc(F)cc34)nc21 [Compound B146],5.00 to 6.00
20,CCOC(=O)[C@@H]1C2CCC(CC2)[C@H]1n1cc(-c2cn[nH]c2)c2cnc(-c3c[nH]c4ncc(F)cc34)nc21 [Compound B174],4.00 to 5.00
21,CC(C(=O)O)n1cc(-c2c[nH]c3ncc(F)cc23)c2cncnc21 (centres unmarked) [Compound C10],< 4.00
22,COC(=O)[C@H](CO)NC(=O)Cn1ccc2c(-c3c[nH]c4ncc(F)cc34)ncnc21 [Compound A13],< 4.00
23,CN(C)C(=O)CCn1ccc2c(-c3c[nH]c4ncc(F)cc34)ncnc21 [Compound A4],4.00 to 5.00

# Reference: patent US11014941B2, “Pyrrolopyrimidine derivatives useful as inhibitors of influenza virus replication” (priority 2017, dated 2021)
